Source: patent US4347323A, “Glycerol kinase from Streptomyces canus” (Toyo Jozo Kabushiki Kaisha, priority 1979, dated 1982)
Entries after “also recorded” stand apart in the source; their conditions may differ. Read-outs that look alike come from different tables or passages of the source.

Experiments:
[1] = tested on: glycerol kinase (GK) produced by Streptomyces canus A 2408; assay: Effect of metal ions and p-chloromercuribenzoate (PCMB); type: biochemical
Source text: Effect of metal ions and p-chloromercuribenzoate (PCMB)

[2] = tested on: glycerol kinase (GK) produced by Streptomyces canus A 2408; assay: Substrate specificity for glycerol, dihydroxyacetone phosphate and D-glyceraldehyde (ADP assay); type: biochemical; conditions: for Relative activity: substrate 0.1 M, 0.05 ml, 37° C. for 10 minutes, ADP assayed at 550 nm
Experimental: (i) specificity for glycerol, dihydroxyacetone phosphate and D-glyceraldehyde: […]
The reaction mixture (0.95 ml) is preincubated at 37° C. for 3 minutes, and the enzyme solution (dissolved in 10 mM phosphate buffer, pH 7.5, 0.05 ml) is added thereto. Then the mixture is incubated at 37° C. for 10 minutes. The reaction is stopped by boiling for 3 minutes. After cooling to 37° C., the amount of ADP is assayed. ADP is assayed by adding an ADP-assay solution (2.0 ml) comprising the following mixture: […]
The reaction mixture is incubated at 37° C. for 15 minutes. Color formation is measured at 550 nm to calculate the substrate specificity.

[3] = tested on: glycerol kinase (GK) produced by Streptomyces canus A 2408; assay: Km value of GK for its substrates; type: biochemical
Experimental: The above mixture (1 ml) is preincubated at 37° C. for 5 minutes and GK solution (50 μl) [diluted with GL-buffer (10 mM phosphate buffer containing 10 mM glycerol, pH 7.5)] is added thereto and incubated at 37° C. for 10 minutes.
One unit of GK is defined as liberating […] of glycero-3-phosphate per minute.
Enzyme activity is calculated by the following equation: [formula]

[4] = tested on: glycerol kinase (GK) produced by Streptomyces canus A 2408; assay: Specific activity for nucleotide; type: biochemical; conditions: for Relative activity (%): 10 mM ATP replaced by the nucleotide, formed glycero-3-phosphate measured
Experimental: (ii) specific activity for nucleotide:
In assay method (i) hereinabove, 10 mM ATP is replaced by CTP, ITP, GTP and UTP and measures the formed glycero-3-phosphate.

[5] = tested on: pigeon heart GK (Pig.-GK); conditions: cited from earlier work
[6] = tested on: Escherichia coli GK (E.Co-GK); conditions: cited from earlier work

## [Cl-].[Cl-].[Mg+2] [MgCl2]
[1]
  Effect of metal ion on GK activity (in words): activated
[1]; reagent 1.0 mM
  Relative Activity (%) with 1 mM Mg++: 100%
  Relative Activity (%) without Mg++: 100%

## [Ca+2].[Cl-].[Cl-] [CaCl2]
[1]
  Effect of metal ion on GK activity (in words): inhibited
[1]; reagent 1.0 mM
  Relative Activity (%) with 1 mM Mg++: 54%
  Relative Activity (%) without Mg++: 0%

## O=C[C@H](O)CO [D-glyceraldehyde]
[2]
  Relative activity: 20%
[3]
  Km: 350 µM

## Nc1nc2c(ncn2[C@@H]2O[C@H](COP(=O)(O)OP(=O)(O)OP(=O)(O)O)[C@@H](O)[C@H]2O)c(=O)[nH]1 [GTP]
[4]
  Relative activity (%): 19%

## OCC(O)CO [glycerol]
[2]; glycerol versus dihydroxyacetone phosphate
  substrate specificity (in words): higher specificity
[2]
  Relative activity: 100%
[3]
  Km: 48 µM

## O=C(CO)CO [dihydroxyacetone]
[2]
  Relative activity: 74%
[3]
  Km: 660 µM

## Nc1ccn([C@@H]2O[C@H](COP(=O)(O)OP(=O)(O)OP(=O)(O)O)[C@@H](O)[C@H]2O)c(=O)n1 [CTP]
[4]
  nucleotide specificity (in words): especially high specificity
  Relative activity (%): 92%

## O=C(O)c1cc[c]([Hg][Cl])cc1 [PCMB, p-chloromercuribenzoate]
[1]; 7.5×10^-6 M of PCMB
  Inhibition of GK activity by PCMB (in words): completely inhibits
[1]; PCMB 5.0 × 10^-6 M
  Relative Activity (%) with 1 mM Mg++: 13%
[1]; PCMB 7.5 × 10^-6 M
  Relative Activity (%) with 1 mM Mg++: 0%

## [Cl][Mn][Cl] [MnCl2]
[1]; listed as Mn++
  Effect of metal ion on GK activity (in words): inhibited; also recorded: strongly inhibits
[1]; reagent 1.0 mM
  Relative Activity (%) with 1 mM Mg++: 14%
  Relative Activity (%) without Mg++: 6%
[5]
  use as divalent metal ion (in words): can be used
[6]
  use as divalent metal ion (in words): can be used

## dihydroxyacetone phosphate
[6]
  activity for dihydroxyacetone phosphate as compared with glycerol: nearly twice

## O=c1ccn([C@@H]2O[C@H](COP(=O)(O)OP(=O)(O)OP(=O)(O)O)[C@@H](O)[C@H]2O)c(=O)[nH]1 [UTP]
[4]
  Relative activity (%): 18%

## Nc1ncnc2c1ncn2[C@@H]1O[C@H](COP(=O)(O)OP(=O)(O)OP(=O)(O)O)[C@@H](O)[C@H]1O [ATP]
[4]
  nucleotide specificity (in words): especially high specificity
  Relative activity (%): 100%
[3]
  Km: 200 µM
[6]
  nucleotide specificity (in words): acts only for ATP

## O=c1[nH]cnc2c1ncn2[C@@H]1O[C@H](COP(=O)(O)OP(=O)(O)OP(=O)(O)O)[C@@H](O)[C@H]1O [ITP]
[4]
  Relative activity (%): 47%
